Source: patent US10941157B2, “Pesticidal compositions and uses thereof” (Gilead Apollo, LLC, priority 2015, dated 2021)
Values after ≈ are worked out from the molar mass of the structure shown.

Experiments:
Botrtyis cinerea (Bc) = assay: In vitro pathogen growth inhibition assay, Bc; assay type: cell-based; settings: 48 h, ≥90% growth inhibition; 48 hours; vs 2% DMSO control; read-out: Compound Concentration (ppm) sufficient for ≥90% inhibition of Bc
How it was run: (§1)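 Value reported is the compound concentration reaching ≥90% growth inhibition, from OD readings at 24 and 48 h after blank subtraction, confirmed visually. Inoculum was spores diluted in 17% V8 medium, except Rs, using 1.5 mm mycelial plugs in ¼ PDB; actual compound concentration corrected via OD600.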

[1] = system: Collectotrichum graminicola (Cg); assay: In vitro pathogen growth inhibition assay, Cg; assay type: cell-based; settings: 48 h, ≥90% growth inhibition; 48 hours; vs 2% DMSO control; read-out: Compound Concentration (ppm) sufficient for ≥90% inhibition of Cg
How it was run: as §1

Diplodia maydis (Dm) = assay: In vitro pathogen growth inhibition assay, Dm; assay type: cell-based; settings: Stenocarpella maydis, 48 h, ≥90% growth inhibition; 48 hours; vs 2% DMSO control; read-out: Compound Concentration (ppm) sufficient for ≥90% inhibition of Dm
How it was run: (§2)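 Spores of Dm, Fv and Pc were diluted in 17% V8 liquid medium; Rs used 1.5 mm mycelial plugs in ¼ PDB. Compounds from 2.5 mg/ml DMSO stocks were combined with inoculum, growth was read by OD600 at 24 and 48 h with blank subtraction, and the reported value is the concentration giving ≥90% inhibition.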

[2] = system: Fusarium moniliforme (Fm); assay: In vitro pathogen growth inhibition assay, Fm; assay type: cell-based; settings: Fusarium verticillioides; ≥90% growth inhibition; 48 hours; vs 2% DMSO control; read-out: Compound Concentration (ppm) sufficient for ≥90% inhibition of Fm
How it was run: as §1

[3] = system: Fusarium virguliforme (Fv); assay: In vitro pathogen growth inhibition assay, Fv; assay type: cell-based; settings: ≥90% growth inhibition, 48 hours, vs 2% DMSO control, read-out: Compound Concentration (ppm) sufficient for ≥90% inhibition of Fv
How it was run: as §2

[4] = system: Phytophthora capsici (Pc); assay: In vitro pathogen growth inhibition assay, Pc; assay type: cell-based; settings: 48 h, ≥90% growth inhibition, 48 hours, vs 2% DMSO control, read-out: Compound Concentration (ppm) sufficient for ≥90% inhibition of Pc
How it was run: as §2

Rhizoctonia solani (Rs) = assay: In vitro pathogen growth inhibition assay, Rs (mycelial plugs); assay type: cell-based; settings: Rhizoctonia solani, 48 h, ≥90% growth inhibition; mycelial plugs; 48 hours; vs 2% DMSO control; read-out: Compound Concentration (ppm) sufficient for ≥90% inhibition of Rs
How it was run: as §2

Septoria tritici (St) = assay: In vitro pathogen growth inhibition assay, St; assay type: cell-based; settings: Zymoseptoria tritici, 48 h, ≥90% growth inhibition; 48 hours; vs 2% DMSO control; read-out: Compound Concentration (ppm) sufficient for ≥90% inhibition of St
How it was run: as §1

[5] = system: Blumeria graminis f. sp. hordei; assay: Foliar protection test for barley powdery mildew control; assay type: in vivo; settings: foliar spray on Hordeum vulgare cv. Perry, inoculated 24 hours after treatment, evaluated 7 days later
How it was run: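 Protective foliar test: compound atomized onto both leaf surfaces of 6-day-old Hordeum vulgare cv. Perry, followed after 24 h by spore-cloud inoculation from colonized untreated plants. Disease rated on leaves 7 days on, plants held at 20 to 22° C and 70% RH.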

Sphaerotheca fuliginea = assay: Foliar protection for cucumber powdery mildew control; assay type: in vivo; settings: foliar spray on Cucumis sativus cv. Straight Eight, inoculated 24 hours after treatment, evaluated 7 days later
How it was run: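 Protective foliar spray on 10-day-old Straight Eight cucumbers, with S. fuliginea spores dusted from infected stock plants 24 h after treatment. Disease developed at 23–27 °C, 60% RH and a 16 h photoperiod. Leaves were rated for mildew growth after 7 days; test rates 10 ppm or below.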

[6] = system: Mycosphaerella graminicola (synthetic Septoria tritici); assay: Foliar protection test for wheat septoria leaf blotch control; assay type: in vivo; settings: foliar spray on Triticum aestivum cv. WinterHawk, inoculated 1 hour after treatment, evaluated 16 days later
Fusarium graminearum = assay type: in vivo; settings: spray on flowering Triticum aestivum cv. Samson, inoculated 24 hours after treatment, evaluated 14 days later
Puccinia triticina = assay: Foliar protection test for wheat leaf rust control; assay type: in vivo; settings: foliar application to wheat (Triticum aestivum cv. Winterhawk), evaluated 10 days later
Phakopsora pachyrhizi = assay: Foliar protection test for Asian soybean rust control; assay type: in vivo; settings: foliar application to soybean (Glycine max AG4832), percent disease area evaluated 14 days later

Row | SMILES | IC90 (Botrtyis cinerea (Bc)) [µg/mL] | IC90 [1] [µg/mL] | IC90 (Diplodia maydis (Dm)) [µg/mL] | IC90 [2] [µg/mL] | IC90 [3] [µg/mL] | IC90 [4] [µg/mL] | IC90 (Rhizoctonia solani (Rs)) [µg/mL] | IC90 (Septoria tritici (St)) [µg/mL] | Barley Powdery Mildew Control at a compound concentration of 10 ppm or lower [5] | Cucumber Powdery Mildew Control at a compound concentration of 10 ppm or lower (Sphaerotheca fuliginea) | Septoria Leaf Blotch Control at a compound concentration of 25 ppm or lower [6] | Wheat Fusarium Head Blight Control at a compound concentration of 25 ppm or lower (Fusarium graminearum) | Wheat Leaf Rust Control at a compound concentration of 10 ppm or lower (Puccinia triticina) | Asian Soybean Rust Control at a compound concentration of 25 ppm or lower (Phakopsora pachyrhizi)
1 | COc1ccc(F)cc1[C@H](Cn1c(=O)n(C(C)(C)C(=O)NC(C)C)c(=O)c2c(C)c(-n3cccn3)sc21)OC[C@@H](C)C#N [Compound I-262, 2-(1-((R)-2-((S)-2-cyanopropoxy)-2-(5-fluoro-2-methoxyphenyl)ethyl)-5-methyl-2,4-dioxo-6-(1H-pyrazol-1-yl)-1,4-dihydrothieno[2,3-d]pyrimidin-3 (2H)-yl)-N-isopropyl-2-methylpropanamide] | 0.4 (≈ 0.655 µM) | 0.08 (≈ 0.131 µM) | 2 (≈ 3.27 µM) | ≥ 0.08 | 0.4 (≈ 0.655 µM) | ≥ 10 | 0.08 (≈ 0.131 µM) | ≥ 2 | A (from 70% to 84% control of barley powdery mildew) | AA (≥85% control of cucumber powdery mildew) | AA (≥85% control of wheat septoria leaf blotch) | B (from 50 to 69% control of wheat fusarium head blight) | AA (≥85% control of wheat leaf rust) | AA (≥85% control of Asian soybean rust)
2 | COc1ccc(F)cc1[C@H](Cn1c(=O)n(C(C)(C)C(=O)NC(C)C)c(=O)c2c(C)c(-n3cccn3)sc21)OC[C@H](C)C#N [Compound I-263, 2-(1-((R)-2-((R)-2-cyanopropoxy)-2-(5-fluoro-2-methoxyphenyl)ethyl)-5-methyl-2,4-dioxo-6-(1H-pyrazol-1-yl)-1,4-dihydrothieno[2,3-d]pyrimidin-3 (2H)-yl)-N-isopropyl-2-methylpropanamide] | 0.4 (≈ 0.655 µM) | 0.4 (≈ 0.655 µM) | 2 (≈ 3.27 µM) | ≥ 0.08 | 0.4 (≈ 0.655 µM) | ≥ 50 | 0.4 (≈ 0.655 µM) | > 10 | A (from 70% to 84% control of barley powdery mildew) | AA (≥85% control of cucumber powdery mildew) | D (<25% control of wheat septoria leaf blotch) | B (from 50 to 69% control of wheat fusarium head blight) | AA (≥85% control of wheat leaf rust) | AA (≥85% control of Asian soybean rust)
3 | COc1ccc(F)cc1[C@@](C)(Cn1c(=O)n(C(C)(C)C(=O)NC(C)C)c(=O)c2c(C)c(-n3nccn3)sc21)OCCC#N [Compound I-274, (S)-2-(1-(2-(2-cyanoethoxy)-2-(5-fluoro-2-methoxyphenyl)propyl)-5-methyl-2,4-dioxo-6-(2H-1,2,3-triazol-2-yl)-1,4-dihydrothieno[2,3-d]pyrimidin-3 (2H)-yl)-N-isopropyl-2-methylpropanamide] | 0.4 (≈ 0.654 µM) | 0.08 (≈ 0.131 µM) | 0.4 (≈ 0.654 µM) | 0.08 (≈ 0.131 µM) | 0.4 (≈ 0.654 µM) | 2 (≈ 3.27 µM) | 0.08 (≈ 0.131 µM) | > 50 | AA (≥85% control of barley powdery mildew) | AA (≥85% control of cucumber powdery mildew) | AA (≥85% control of wheat septoria leaf blotch) | C (from 25 to 49% control of wheat fusarium head blight) | AA (≥85% control of wheat leaf rust) | A (from 70% to 84% control of Asian soybean rust)
4 | CCc1ccc(F)cc1[C@H](Cn1c(=O)n(C(C)(C)C(=O)NC(C)C)c(=O)c2c(C)c(-n3nccn3)sc21)OC[C@@H](C)C#N [Compound I-281, 2-(1-((R)-2-((S)-2-cyanopropoxy)-2-(2-ethyl-5-fluorophenyl)ethyl)-5-methyl-2,4-dioxo-6-(2H-1,2,3-triazol-2-yl)-1,4-dihydrothieno[2,3-d]pyrimidin-3 (2H)-yl)-N-isopropyl-2-methylpropanamide] | 0.08 (≈ 0.131 µM) | 0.08 (≈ 0.131 µM) | 2 (≈ 3.28 µM) | 0.08 (≈ 0.131 µM) | 0.08 (≈ 0.131 µM) | > 50 | 0.08 (≈ 0.131 µM) | > 50 | AA (≥85% control of barley powdery mildew) | AA (≥85% control of cucumber powdery mildew) | AA (≥85% control of wheat septoria leaf blotch) | C (from 25 to 49% control of wheat fusarium head blight) | AA (≥85% control of wheat leaf rust) | D (<25% control of Asian soybean rust)
5 | CCc1ccc(F)cc1[C@H](Cn1c(=O)n(C(C)(C)C(=O)NC(C)C)c(=O)c2c(C)c(-n3nccn3)sc21)OC[C@H](C)C#N [Compound I-284, 2-(1-((R)-2-((R)-2-cyanopropoxy)-2-(2-ethyl-5-fluorophenyl)ethyl)-5-methyl-2,4-dioxo-6-(2H-1,2,3-triazol-2-yl)-1,4-dihydrothieno[2,3-d]pyrimidin-3 (2H)-yl)-N-isopropyl-2-methylpropanamide] | 0.4 (≈ 0.656 µM) | 0.08 (≈ 0.131 µM) | 2 (≈ 3.28 µM) | 0.08 (≈ 0.131 µM) | 0.4 (≈ 0.656 µM) | > 50 | 0.08 (≈ 0.131 µM) | > 50 | AA (≥85% control of barley powdery mildew) | AA (≥85% control of cucumber powdery mildew) | AA (≥85% control of wheat septoria leaf blotch) | C (from 25 to 49% control of wheat fusarium head blight) | AA (≥85% control of wheat leaf rust) | B (from 50 to 69% control of Asian soybean rust)
6 | CCOC(=O)c1sc2c(c1C)c(=O)n(C(C)(C)C(=O)NC(C)C)c(=O)n2C[C@H](OCCS(C)(=O)=O)c1cc(F)ccc1OC [Compound I-285, (R)-ethyl-1-(2-(5-fluoro-2-methoxyphenyl)-2-(2-(methylsulfonyl)ethoxy)ethyl)-3-(1-(isopropylamino)-2-methyl-1-oxopropan-2-yl)-5-methyl-2,4-dioxo-1,2,3,4-tetrahydrothieno[2,3-d]pyrimidine-6-carboxylate] | 2 (≈ 3.05 µM) | 0.4 (≈ 0.61 µM) | ≥ 2 | 0.4 (≈ 0.61 µM) | 2 (≈ 3.05 µM) | 50 (≈ 76.2 µM) | 0.4 (≈ 0.61 µM) | ≥ 50 | A (from 70% to 84% control of barley powdery mildew) | AA (≥85% control of cucumber powdery mildew) | C (from 25 to 49% control of wheat septoria leaf blotch) | C (from 25 to 49% control of wheat fusarium head blight) | AA (≥85% control of wheat leaf rust) | C (from 25 to 49% control of Asian soybean rust)
